Assay results as given in patent publication US7098013B2, “Polypeptide having α-isomaltosyl-transferase activity” (Kabushiki Kaisha Hayashibara Seibutsu Kagaku Kenkyujo, priority 2000, dated 2006).

Columns and labels:
[1] = system: α-isomaltosyl-transferring enzyme; test: Action of the purified C11 enzyme on saccharide substrates (saccharide composition by HPLC); type: biochemical, Bacillus globisporus C11; details: for yield of cyclotetrasaccharide in dry basis from the substrate: summary of Table 3
Procedure: An aqueous solution containing 10 mM of glucose, 6-O-α-glucosylglucose (isomaltose), 6^2-O-α-glucosylmaltose (panose), 6^3-O-α-glucosylmaltotriose (isomaltosylmaltose), 6^4-O-α-glucosylmaltotetraose, or 6^5-O-α-glucosylmaltopentaose was prepared as substrate solution. To each of the above substrate solution was added two units/mM-substrate of the purified α-isomaltosyl-transferring enzyme specimen obtained in Experiment 1-2 and incubated at 30° C. and at pH 6.0 for 12 hours. After deionizing by conventional method, the resulting reaction solutions were measured for saccharide composition on HPLC using “MCI GEL CK04SS”, a column commercialized by Mitsubishi Chemical Industries, Ltd., Tokyo, Japan, at a column temperature of 80° C. and a flow rate of 0.4 ml/min of water, and using a detector “RI-8012”, a differential refractometer commercialized by Tosho Corporation, Tokyo, Japan.

[2] = system: α-isomaltosyl-transferring enzyme; test: Action of the purified N75 enzyme on saccharide substrates (saccharide composition by HPLC); type: biochemical, Bacillus globisporus N75; details: for yield of cyclotetrasaccharide in dry basis from the substrate: summary of Table 6
Procedure: An aqueous solution containing 10 mM of glucose, 6-O-α-glucosylglucose (isomaltose), 6^2-O-α-glucosylmaltose (panose), 6^3-O-α-glucosylmaltotriose (isomaltosylmaltose), 6^4-O-αglucosylmaltotetraose, or 6^5-O-α-glucosylmaltopentaose was prepared as substrate solution. To each of the above substrate solutions was added two units/mM-substrate of the purified α-isomaltosyl-transferring enzyme specimen obtained in Experiment 3-2 and incubated at 30° C. and at pH 6.0 for 12 hours. After deionizing by conventional method, the resulting reaction solutions were measured for saccharide composition on HPLC, disclosed in Experiment 2-1.

Bacillus globisporus C11 = test: Utilization of carbon source and acid formation, strain C11; type: cell-based; set-up: key: The symbol “+” means yes or positive; details: carbon source
Procedure: (§1) Physiological Properties> • (1) VP-test: Negative • (2) Indole formation: Negative • (3) Gas formation from nitric acid: Positive • (4) Hydrolysis of starch: Positive • (5) Formation of pigment: Forming no soluble pigment • (6) Urease: Positive • (7) Oxidase: Positive • (8) Catalase: Positive • (9) Growth conditions: Growing at a pH of 5.5–9.0 and a temperature of 10–35° C. • (10) Oxygen requirement: Aerobic • (11) Utilization of carbon source and acid formation

Bacillus globisporus N75 = test: Utilization of carbon source and acid formation, strain N75; type: cell-based; set-up: key: The symbol “+” means yes or positive; details: carbon source
Procedure: as §1

[3] = C11 enzyme 2 units/mM-substrate, 10 mM substrate, 30° C., pH 6.0, 12 hours
[4] = N75 enzyme 2 units/mM-substrate, 10 mM substrate, 30° C., pH 6.0, 12 hours

SMILES	Content of the substrate itself (remaining) in the reaction mixture [1, 3] [%]	Content of the substrate itself (remaining) in the reaction mixture [2, 4] [%]	Content of Cyclotetrasaccharide in the reaction mixture [1, 3] [%]	Content of Isomaltose in the reaction mixture [1, 3] [%]	Content of others in the reaction mixture [1, 3] [%]	yield of cyclotetrasaccharide in dry basis from the substrate ([1]; C11 enzyme) [%]	Content of Cyclotetrasaccharide in the reaction mixture [2, 4] [%]	Content of Isomaltose in the reaction mixture [2, 4] [%]	Content of others in the reaction mixture [2, 4] [%]	yield of cyclotetrasaccharide in dry basis from the substrate ([2]; N75 enzyme) [%]	Acid formation (Bacillus globisporus C11)	Utilization (Bacillus globisporus C11)	Acid formation (Bacillus globisporus N75)	Utilization (Bacillus globisporus N75)	other results
O=C[C@H](O)[C@@H](O)[C@H](O)[C@H](O)CO[C@H]1O[C@H](CO)[C@@H](O)[C@H](O)[C@H]1O [6-O-α-Glucosylglucose, 6-O-α-glucosylglucose]	100	100	–	–	–	–	–	–	–	–	–	–	–	–	product formation from the substrate ([1]; C11 enzyme): No product was detected; product formation from the substrate ([2]; N75 enzyme): No product was detected
OC[C@H]1O[C@H](OC[C@H]2O[C@H](O[C@H]3[C@H](O)[C@@H](O)[C@@H](O[C@H]4[C@H](O)[C@@H](O)C(O)O[C@@H]4CO)O[C@@H]3CO)[C@H](O)[C@@H](O)[C@@H]2O)[C@H](O)[C@@H](O)[C@@H]1O (stereo partly drawn) [6^3-O-α-Glucosylmaltotriose, 6^3-O-α-glucosylmaltotriose]	4.2	4.5	30.8	2.0	12.4	30.8	30.9	1.9	12.4	30.9	–	–	–	–	Content of Maltose in the reaction mixture [1, 3]: 50.6%; Content of Maltose in the reaction mixture [2, 4]: 50.3%
OCC(O)CO [Glycerol]	–	–	–	–	–	–	–	–	–	–	+	+	+	+	–
OC[C@H]1O[C@@H](O[C@H]2[C@H](O)[C@@H](O)C(O)O[C@@H]2CO)[C@H](O)[C@@H](O)[C@H]1O (some centres unmarked) [Lactose]	–	–	–	–	–	–	–	–	–	–	+	+	+	+	–
OC[C@H]1O[C@@](CO)(O[C@H]2O[C@H](CO)[C@@H](O)[C@H](O)[C@H]2O)[C@@H](O)[C@@H]1O [Sucrose]	–	–	–	–	–	–	–	–	–	–	+	+	+	+	–

More lines, main results first:

Content of the substrate itself (remaining) in the reaction mixture [1, 3] [%]	Content of the substrate itself (remaining) in the reaction mixture [2, 4] [%]	Content of Cyclotetrasaccharide in the reaction mixture [1, 3] [%]	Content of Isomaltose in the reaction mixture [1, 3] [%]	Content of others in the reaction mixture [1, 3] [%]	yield of cyclotetrasaccharide in dry basis from the substrate ([1]; C11 enzyme) [%]	Content of Cyclotetrasaccharide in the reaction mixture [2, 4] [%]	Content of Isomaltose in the reaction mixture [2, 4] [%]	Content of others in the reaction mixture [2, 4] [%]	yield of cyclotetrasaccharide in dry basis from the substrate ([2]; N75 enzyme) [%]	SMILES	Acid formation (Bacillus globisporus C11)	Utilization (Bacillus globisporus C11)	Acid formation (Bacillus globisporus N75)	Utilization (Bacillus globisporus N75)	other results
4.6	4.4	43.5	2.1	11.0	43.5	43.2	2.0	9.7	43.2	OC[C@H]1O[C@H](OC[C@H]2O[C@H](O[C@H]3[C@H](O)[C@@H](O)C(O)O[C@@H]3CO)[C@H](O)[C@@H](O)[C@@H]2O)[C@H](O)[C@@H](O)[C@@H]1O (stereo partly drawn) [6^2-O-α-Glucosylmaltose, 6^2-O-α-glucosylmaltose]	–	–	–	–	Content of Glucose in the reaction mixture [1, 3]: 32.2%; Content of Isomaltosylpanose in the reaction mixture [1, 3]: 4.8%; Content of Isomaltosypanoside in the reaction mixture [1, 3]: 1.8%; Content of Glucose in the reaction mixture [2, 4]: 31.8%; Content of Isomaltosylpanose in the reaction mixture [2, 4]: 6.5%; Content of Isomaltosypanoside in the reaction mixture [2, 4]: 2.4%
3.4	3.2	25.6	1.9	8.4	25.6	25.8	1.5	8.6	25.8	OC[C@H]1O[C@H](OC[C@H]2O[C@H](O[C@H]3[C@H](O)[C@@H](O)[C@@H](O[C@H]4[C@H](O)[C@@H](O)[C@@H](O[C@H]5[C@H](O)[C@@H](O)C(O)O[C@@H]5CO)O[C@@H]4CO)O[C@@H]3CO)[C@H](O)[C@@H](O)[C@@H]2O)[C@H](O)[C@@H](O)[C@@H]1O (stereo partly drawn) [6^4-O-α-Glucosylmaltotetraose, 6^4-O-α-glucosylmaltotetraose]	–	–	–	–	Content of Maltotriose in the reaction mixture [1, 3]: 60.7%; Content of Maltotriose in the reaction mixture [2, 4]: 60.9%
4.3	4.2	18.2	1.6	9.4	18.2	18.7	1.4	9.1	18.7	OC[C@H]1O[C@H](OC[C@H]2O[C@H](O[C@H]3[C@H](O)[C@@H](O)[C@@H](O[C@H]4[C@H](O)[C@@H](O)[C@@H](O[C@H]5[C@H](O)[C@@H](O)[C@@H](O[C@H]6[C@H](O)[C@@H](O)C(O)O[C@@H]6CO)O[C@@H]5CO)O[C@@H]4CO)O[C@@H]3CO)[C@H](O)[C@@H](O)[C@@H]2O)[C@H](O)[C@@H](O)[C@@H]1O (stereo partly drawn) [6^5-O-α-Glucosylmaltopentaose, 6^5-O-α-glucosylmaltopentaose]	–	–	–	–	Content of Maltotetraose in the reaction mixture [1, 3]: 66.5%; Content of Maltotetraose in the reaction mixture [2, 4]: 66.6%
